Data from ChEMBL document CHEMBL1833862, “Synthesis and biological evaluation of novel 2-arylamino-3-(arylsulfonyl)quinoxalines as PI3Kα inhibitors” (Eur J Med Chem, 2011).

Test system: A549
Assay: Cytotoxicity against human A549 cells after 72 hrs by MTT assay
Type: functional, cell-based
Conditions: A549, 72 h

Row | SMILES | IC50 [µM]
1 | COc1ccc(S(=O)(=O)c2nc3ccccc3nc2Nc2ccc(Cl)cc2)cc1 | 87.3
2 | O=S(=O)(c1ccccc1)c1nc2ccccc2nc1Nc1cccc(O)c1 | 5.73
3 | Cc1ccc(S(=O)(=O)c2nc3ccccc3nc2Nc2ccc(C(F)(F)F)cc2)cc1 | 13.5
4 | COc1ccc(S(=O)(=O)c2nc3ccccc3nc2Nc2ccc(C(F)(F)F)cc2)cc1 | 4.81
5 | O=S(=O)(c1ccc(Br)cc1)c1nc2ccccc2nc1Nc1ccc(F)cc1 | 4.36
6 | Cc1ccc(S(=O)(=O)c2nc3ccccc3nc2Nc2cccc(N)c2)cc1 | 1.95
7 | Nc1ccc(Nc2nc3ccccc3nc2S(=O)(=O)c2ccc(F)cc2)cc1 | 12.7
8 | COc1ccc(Nc2nc3ccccc3nc2S(=O)(=O)c2ccc(C)cc2)cc1 | > 50
9 | Nc1cccc(Nc2nc3ccccc3nc2S(=O)(=O)c2ccccc2)c1 | 1.59
10 | O=S(=O)(c1ccccc1)c1nc2ccccc2nc1Nc1ccc(F)cc1 | > 50
11 | COc1ccc(Nc2nc3ccccc3nc2S(=O)(=O)c2ccc(Br)cc2)cc1 | 3.34
12 | COc1cc(Nc2nc3ccccc3nc2S(=O)(=O)c2ccc(F)cc2)cc(OC)c1OC | > 50
13 | Cc1ccc(S(=O)(=O)c2nc3ccccc3nc2Nc2ccc(N)cc2)cc1 | 24.6
14 | COc1ccc(S(=O)(=O)c2nc3ccccc3nc2Nc2cccc(O)c2)cc1 | 6.11
15 | COc1ccc(Nc2nc3ccccc3nc2S(=O)(=O)c2ccccc2)cc1 | 11.9
16 | COc1ccc(S(=O)(=O)c2nc3ccccc3nc2Nc2cc(OC)cc(OC)c2)cc1 | 12.7
17 | Cc1ccc(S(=O)(=O)c2nc3ccccc3nc2Nc2ccc(Cl)cc2)cc1 | 54.2
18 | COc1cc(Nc2nc3ccccc3nc2S(=O)(=O)c2ccccc2)cc(OC)c1 | 0.07
19 | COc1cc(Nc2nc3ccccc3nc2S(=O)(=O)c2ccc(Br)cc2)cc(OC)c1OC | 6.11
20 | O=S(=O)(c1ccc(Br)cc1)c1nc2ccccc2nc1Nc1ccccc1 | 10.8
21 | O=S(=O)(c1ccccc1)c1nc2ccccc2nc1Nc1ccc(C(F)(F)F)cc1 | > 50
22 | O=S(=O)(c1ccc(Br)cc1)c1nc2ccccc2nc1Nc1ccc(Cl)cc1 | 61.4
23 | COc1cc(Nc2nc3ccccc3nc2S(=O)(=O)c2ccc(C)cc2)cc(OC)c1OC | 5.61

Biological target: Phosphatidylinositol 4,5-bisphosphate 3-kinase catalytic subunit alpha isoform (Homo sapiens, UniProt P42336)
Assay: Inhibition of human recombinant PI3Kalpha assessed as production of 3,4,5-inositoltriphosphate after 3 hrs by fluorescence polarization assay
Conditions: not given

Sequence of Phosphatidylinositol 4,5-bisphosphate 3-kinase catalytic subunit alpha isoform (P42336 whole entry, canonical isoform): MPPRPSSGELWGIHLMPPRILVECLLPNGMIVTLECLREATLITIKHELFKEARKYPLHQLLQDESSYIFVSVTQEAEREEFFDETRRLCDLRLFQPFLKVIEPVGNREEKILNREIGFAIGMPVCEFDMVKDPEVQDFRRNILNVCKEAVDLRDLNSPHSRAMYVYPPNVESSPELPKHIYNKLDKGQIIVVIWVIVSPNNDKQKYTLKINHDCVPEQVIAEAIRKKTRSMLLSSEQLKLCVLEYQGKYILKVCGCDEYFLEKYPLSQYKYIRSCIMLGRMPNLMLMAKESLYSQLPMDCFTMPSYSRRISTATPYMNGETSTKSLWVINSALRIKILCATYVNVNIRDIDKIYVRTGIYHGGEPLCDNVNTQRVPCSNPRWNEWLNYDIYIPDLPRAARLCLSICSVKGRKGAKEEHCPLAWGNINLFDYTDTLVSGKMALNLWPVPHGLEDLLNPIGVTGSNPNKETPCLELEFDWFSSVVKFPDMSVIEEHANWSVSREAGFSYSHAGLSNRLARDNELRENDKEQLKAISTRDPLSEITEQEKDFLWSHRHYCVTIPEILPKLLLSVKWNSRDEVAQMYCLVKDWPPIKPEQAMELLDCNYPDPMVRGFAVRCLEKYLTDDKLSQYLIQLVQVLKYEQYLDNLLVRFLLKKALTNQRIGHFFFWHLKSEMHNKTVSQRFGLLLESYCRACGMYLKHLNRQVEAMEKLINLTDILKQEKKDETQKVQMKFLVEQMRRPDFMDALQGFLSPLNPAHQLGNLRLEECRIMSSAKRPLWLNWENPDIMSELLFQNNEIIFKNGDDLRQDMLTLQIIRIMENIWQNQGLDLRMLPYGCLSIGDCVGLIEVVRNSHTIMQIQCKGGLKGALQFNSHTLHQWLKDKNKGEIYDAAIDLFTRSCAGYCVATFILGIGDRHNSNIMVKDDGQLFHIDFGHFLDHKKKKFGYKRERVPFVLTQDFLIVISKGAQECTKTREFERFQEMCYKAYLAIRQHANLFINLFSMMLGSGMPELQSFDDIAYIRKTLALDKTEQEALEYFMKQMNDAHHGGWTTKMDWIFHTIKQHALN

Row | IC50 [µM] | SMILES
24 | > 1 | O=S(=O)(c1ccccc1)c1nc2ccccc2nc1Nc1cccc(O)c1
25 | > 1 | COc1ccc(S(=O)(=O)c2nc3ccccc3nc2Nc2cccc(O)c2)cc1
26 | 0.07 | COc1cc(Nc2nc3ccccc3nc2S(=O)(=O)c2ccccc2)cc(OC)c1

Test system: HL-60
Assay: Cytotoxicity against human HL60 cells after 72 hrs by MTT assay
Type: functional, cell-based
Conditions: HL-60, 72 h

Row | SMILES | IC50 [µM]
27 | COc1ccc(S(=O)(=O)c2nc3ccccc3nc2Nc2ccc(Cl)cc2)cc1 | 19.6
28 | O=S(=O)(c1ccccc1)c1nc2ccccc2nc1Nc1cccc(O)c1 | 0.22
29 | Cc1ccc(S(=O)(=O)c2nc3ccccc3nc2Nc2ccc(C(F)(F)F)cc2)cc1 | 0.27
30 | COc1ccc(S(=O)(=O)c2nc3ccccc3nc2Nc2ccc(C(F)(F)F)cc2)cc1 | 0.22
31 | O=S(=O)(c1ccc(Br)cc1)c1nc2ccccc2nc1Nc1ccc(F)cc1 | 0.26
32 | Cc1ccc(S(=O)(=O)c2nc3ccccc3nc2Nc2cccc(N)c2)cc1 | 1.08
33 | Nc1ccc(Nc2nc3ccccc3nc2S(=O)(=O)c2ccc(F)cc2)cc1 | 1.62
34 | COc1ccc(Nc2nc3ccccc3nc2S(=O)(=O)c2ccc(C)cc2)cc1 | 2.79
35 | Nc1cccc(Nc2nc3ccccc3nc2S(=O)(=O)c2ccccc2)c1 | 1.75
36 | O=S(=O)(c1ccccc1)c1nc2ccccc2nc1Nc1ccc(F)cc1 | 1.01
37 | COc1ccc(Nc2nc3ccccc3nc2S(=O)(=O)c2ccc(Br)cc2)cc1 | 1.19
38 | COc1cc(Nc2nc3ccccc3nc2S(=O)(=O)c2ccc(F)cc2)cc(OC)c1OC | 4.79
39 | Cc1ccc(S(=O)(=O)c2nc3ccccc3nc2Nc2ccc(N)cc2)cc1 | 1.22
40 | COc1ccc(S(=O)(=O)c2nc3ccccc3nc2Nc2cccc(O)c2)cc1 | 0.14
41 | COc1ccc(Nc2nc3ccccc3nc2S(=O)(=O)c2ccccc2)cc1 | 0.64
42 | COc1ccc(S(=O)(=O)c2nc3ccccc3nc2Nc2cc(OC)cc(OC)c2)cc1 | 1.71
43 | Cc1ccc(S(=O)(=O)c2nc3ccccc3nc2Nc2ccc(Cl)cc2)cc1 | 17.5
44 | COc1cc(Nc2nc3ccccc3nc2S(=O)(=O)c2ccccc2)cc(OC)c1 | 0.05
45 | COc1cc(Nc2nc3ccccc3nc2S(=O)(=O)c2ccc(Br)cc2)cc(OC)c1OC | 1.02
46 | O=S(=O)(c1ccc(Br)cc1)c1nc2ccccc2nc1Nc1ccccc1 | 0.13
47 | O=S(=O)(c1ccccc1)c1nc2ccccc2nc1Nc1ccc(C(F)(F)F)cc1 | 0.3
48 | O=S(=O)(c1ccc(Br)cc1)c1nc2ccccc2nc1Nc1ccc(Cl)cc1 | 16.4
49 | COc1cc(Nc2nc3ccccc3nc2S(=O)(=O)c2ccc(C)cc2)cc(OC)c1OC | 0.32

Test system: HCT-116
Assay: cells
Conditions: Homo sapiens, HCT-116, 72 h

Row | IC50 [µM] | SMILES
50 | 26.5 | COc1ccc(S(=O)(=O)c2nc3ccccc3nc2Nc2ccc(Cl)cc2)cc1
51 | 1.15 | O=S(=O)(c1ccccc1)c1nc2ccccc2nc1Nc1cccc(O)c1
52 | 0.95 | Cc1ccc(S(=O)(=O)c2nc3ccccc3nc2Nc2ccc(C(F)(F)F)cc2)cc1
53 | 0.11 | COc1ccc(S(=O)(=O)c2nc3ccccc3nc2Nc2ccc(C(F)(F)F)cc2)cc1
54 | 1.67 | O=S(=O)(c1ccc(Br)cc1)c1nc2ccccc2nc1Nc1ccc(F)cc1
55 | 2.39 | Cc1ccc(S(=O)(=O)c2nc3ccccc3nc2Nc2cccc(N)c2)cc1
56 | 10.1 | Nc1ccc(Nc2nc3ccccc3nc2S(=O)(=O)c2ccc(F)cc2)cc1
57 | > 50 | COc1ccc(Nc2nc3ccccc3nc2S(=O)(=O)c2ccc(C)cc2)cc1
58 | 1.54 | Nc1cccc(Nc2nc3ccccc3nc2S(=O)(=O)c2ccccc2)c1
59 | 5.19 | O=S(=O)(c1ccccc1)c1nc2ccccc2nc1Nc1ccc(F)cc1
60 | 3.4 | COc1ccc(Nc2nc3ccccc3nc2S(=O)(=O)c2ccc(Br)cc2)cc1
61 | 3.11 | COc1cc(Nc2nc3ccccc3nc2S(=O)(=O)c2ccc(F)cc2)cc(OC)c1OC
62 | 11.5 | Cc1ccc(S(=O)(=O)c2nc3ccccc3nc2Nc2ccc(N)cc2)cc1
63 | 0.82 | COc1ccc(S(=O)(=O)c2nc3ccccc3nc2Nc2cccc(O)c2)cc1
64 | 2.42 | COc1ccc(Nc2nc3ccccc3nc2S(=O)(=O)c2ccccc2)cc1
65 | 13.4 | COc1ccc(S(=O)(=O)c2nc3ccccc3nc2Nc2cc(OC)cc(OC)c2)cc1
66 | 2.05 | Cc1ccc(S(=O)(=O)c2nc3ccccc3nc2Nc2ccc(Cl)cc2)cc1
67 | 0.95 | COc1cc(Nc2nc3ccccc3nc2S(=O)(=O)c2ccccc2)cc(OC)c1
68 | 13 | COc1cc(Nc2nc3ccccc3nc2S(=O)(=O)c2ccc(Br)cc2)cc(OC)c1OC
69 | 1.11 | O=S(=O)(c1ccc(Br)cc1)c1nc2ccccc2nc1Nc1ccccc1
70 | 2.09 | O=S(=O)(c1ccccc1)c1nc2ccccc2nc1Nc1ccc(C(F)(F)F)cc1
71 | 10.6 | O=S(=O)(c1ccc(Br)cc1)c1nc2ccccc2nc1Nc1ccc(Cl)cc1
72 | 10.8 | COc1cc(Nc2nc3ccccc3nc2S(=O)(=O)c2ccc(C)cc2)cc(OC)c1OC

Test system: KB
Assay: Cytotoxicity against human KB cells after 72 hrs by MTT assay
Type: functional, cell-based
Conditions: not given

Row | SMILES | IC50 [µM]
73 | COc1ccc(S(=O)(=O)c2nc3ccccc3nc2Nc2ccc(Cl)cc2)cc1 | 49.8
74 | O=S(=O)(c1ccccc1)c1nc2ccccc2nc1Nc1cccc(O)c1 | 8.42
75 | Cc1ccc(S(=O)(=O)c2nc3ccccc3nc2Nc2ccc(C(F)(F)F)cc2)cc1 | 10.3
76 | COc1ccc(S(=O)(=O)c2nc3ccccc3nc2Nc2ccc(C(F)(F)F)cc2)cc1 | 0.89
77 | O=S(=O)(c1ccc(Br)cc1)c1nc2ccccc2nc1Nc1ccc(F)cc1 | 2.28
78 | Cc1ccc(S(=O)(=O)c2nc3ccccc3nc2Nc2cccc(N)c2)cc1 | 10.6
79 | Nc1cccc(Nc2nc3ccccc3nc2S(=O)(=O)c2ccccc2)c1 | 4.29
80 | O=S(=O)(c1ccccc1)c1nc2ccccc2nc1Nc1ccc(F)cc1 | > 50
81 | Cc1ccc(S(=O)(=O)c2nc3ccccc3nc2Nc2ccc(N)cc2)cc1 | 5.63
82 | COc1ccc(S(=O)(=O)c2nc3ccccc3nc2Nc2cccc(O)c2)cc1 | 8.27
83 | Cc1ccc(S(=O)(=O)c2nc3ccccc3nc2Nc2ccc(Cl)cc2)cc1 | 13.8
84 | O=S(=O)(c1ccc(Br)cc1)c1nc2ccccc2nc1Nc1ccccc1 | 5.1
85 | O=S(=O)(c1ccccc1)c1nc2ccccc2nc1Nc1ccc(C(F)(F)F)cc1 | > 50
86 | O=S(=O)(c1ccc(Br)cc1)c1nc2ccccc2nc1Nc1ccc(Cl)cc1 | 11.6

Test system: PC-3
Assay: cells
Conditions: Homo sapiens, PC-3, 72 h
Description: Cytotoxicity against human PC3 cells after 72 hrs by MTT assay

Row | IC50 [µM] | SMILES
87 | 31.8 | COc1ccc(S(=O)(=O)c2nc3ccccc3nc2Nc2ccc(Cl)cc2)cc1
88 | 1.68 | O=S(=O)(c1ccccc1)c1nc2ccccc2nc1Nc1cccc(O)c1
89 | 2.54 | Cc1ccc(S(=O)(=O)c2nc3ccccc3nc2Nc2ccc(C(F)(F)F)cc2)cc1
90 | 0.33 | COc1ccc(S(=O)(=O)c2nc3ccccc3nc2Nc2ccc(C(F)(F)F)cc2)cc1
91 | 9.16 | O=S(=O)(c1ccc(Br)cc1)c1nc2ccccc2nc1Nc1ccc(F)cc1
92 | 2 | Cc1ccc(S(=O)(=O)c2nc3ccccc3nc2Nc2cccc(N)c2)cc1
93 | 2.05 | Nc1ccc(Nc2nc3ccccc3nc2S(=O)(=O)c2ccc(F)cc2)cc1
94 | > 50 | COc1ccc(Nc2nc3ccccc3nc2S(=O)(=O)c2ccc(C)cc2)cc1
95 | 2.15 | Nc1cccc(Nc2nc3ccccc3nc2S(=O)(=O)c2ccccc2)c1
96 | 14.2 | O=S(=O)(c1ccccc1)c1nc2ccccc2nc1Nc1ccc(F)cc1
97 | 1.11 | COc1ccc(Nc2nc3ccccc3nc2S(=O)(=O)c2ccc(Br)cc2)cc1
98 | > 50 | COc1cc(Nc2nc3ccccc3nc2S(=O)(=O)c2ccc(F)cc2)cc(OC)c1OC
99 | 5 | Cc1ccc(S(=O)(=O)c2nc3ccccc3nc2Nc2ccc(N)cc2)cc1
100 | 1.63 | COc1ccc(S(=O)(=O)c2nc3ccccc3nc2Nc2cccc(O)c2)cc1
101 | 1.51 | COc1ccc(Nc2nc3ccccc3nc2S(=O)(=O)c2ccccc2)cc1
102 | 6.22 | COc1ccc(S(=O)(=O)c2nc3ccccc3nc2Nc2cc(OC)cc(OC)c2)cc1
103 | 9.66 | Cc1ccc(S(=O)(=O)c2nc3ccccc3nc2Nc2ccc(Cl)cc2)cc1
104 | 0.14 | COc1cc(Nc2nc3ccccc3nc2S(=O)(=O)c2ccccc2)cc(OC)c1
105 | 19.8 | COc1cc(Nc2nc3ccccc3nc2S(=O)(=O)c2ccc(Br)cc2)cc(OC)c1OC
106 | 1.18 | O=S(=O)(c1ccc(Br)cc1)c1nc2ccccc2nc1Nc1ccccc1
107 | 3.55 | O=S(=O)(c1ccccc1)c1nc2ccccc2nc1Nc1ccc(C(F)(F)F)cc1
108 | 7.46 | O=S(=O)(c1ccc(Br)cc1)c1nc2ccccc2nc1Nc1ccc(Cl)cc1
109 | 4.85 | COc1cc(Nc2nc3ccccc3nc2S(=O)(=O)c2ccc(C)cc2)cc(OC)c1OC
